# Results taken from the NIST ThermoML archive (doi:10.1016/j.fluid.2007.03.021).
# ± gives the expanded uncertainty stated by the source.
# Conditions: Liquid
compound,measurement,setting,value
CCO [ethanol],viscosity,"298.15 K, 101.33 kPa, Capillary tube (Ostwald / Ubbelohde) method",1.082 ± 0.009 mPa·s
same,Normal boiling temperature,Ebulliometric method (Recirculating still),78.28 ± 0.05 °C
